The source made the active and inactive calls. No rule for the calls is given here.
Key:
Format in all cases: functional
[1] = test system: Aspergillus flavus; test: Antimicrobial activity against Aspergillus flavus MTCC 1973 at 500 ug/ml after 72 hrs by cup plate method; details: MTCC 1973, 72 h, read-out: IZ
[2] = test system: Escherichia coli; test: Antimicrobial activity against Escherichia coli MTCC 723 at 1000 ug/ml after 24 hrs by cup plate method; details: MTCC 723, 24 h, read-out: IZ
[3] = test system: Staphylococcus aureus; test: Antimicrobial activity against Staphylococcus aureus ATCC 29513 at 750 ug/ml after 24 hrs by cup plate method; details: ATCC 29513, 24 h, read-out: IZ
[4] = test system: Aspergillus niger; test: Antimicrobial activity against Aspergillus niger MTCC 281 at 1000 ug/ml after 72 hrs by cup plate method; details: MTCC 281, 72 h, read-out: IZ
[5] = test system: Aspergillus flavus; test: Antimicrobial activity against Aspergillus flavus MTCC 1973 at 1000 ug/ml after 72 hrs by cup plate method; details: MTCC 1973, 72 h, read-out: IZ
[6] = test system: Aspergillus niger; test: Antimicrobial activity against Aspergillus niger MTCC 281 at 750 ug/ml after 72 hrs by cup plate method; details: MTCC 281, 72 h, read-out: IZ
[7] = test system: Klebsiella pneumoniae; test: Antimicrobial activity against Klebsiella pneumoniae NCTC 13368 at 1000 ug/ml after 24 hrs by cup plate method; details: NCTC 13368, 24 h, read-out: IZ
[8] = test system: Pseudomonas aeruginosa; test: Antimicrobial activity against Pseudomonas aeruginosa MTCC 1688 at 1000 ug/ml after 24 hrs by cup plate method; details: MTCC 1688, 24 h, read-out: IZ
[9] = test system: Escherichia coli; test: Antimicrobial activity against Escherichia coli MTCC 723 at 750 ug/ml after 24 hrs by cup plate method; details: MTCC 723, 24 h, read-out: IZ
[10] = test system: Aspergillus terreus; test: Antimicrobial activity against Aspergillus terreus MTCC 1782 at 750 ug/ml after 72 hrs by cup plate method; details: MTCC 1782, 72 h, read-out: IZ
[11] = Antioxidant activity assessed as metal chelating activity by measuring inhibition of ferrozine-Fe2+ complex formation at 25 to 100 ug/ml
[12] = test system: Pseudomonas aeruginosa; test: Antimicrobial activity against Pseudomonas aeruginosa MTCC 1688 at 500 ug/ml after 24 hrs by cup plate method; details: MTCC 1688, 24 h, read-out: IZ
[13] = test system: Klebsiella pneumoniae; test: Antimicrobial activity against Klebsiella pneumoniae NCTC 13368 at 750 ug/ml after 24 hrs by cup plate method; details: NCTC 13368, 24 h, read-out: IZ
[14] = test system: Pseudomonas aeruginosa; test: Antimicrobial activity against Pseudomonas aeruginosa MTCC 1688 at 750 ug/ml after 24 hrs by cup plate method; details: MTCC 1688, 24 h, read-out: IZ
[15] = test system: Aspergillus terreus; test: Antimicrobial activity against Aspergillus terreus MTCC 1782 at 500 ug/ml after 72 hrs by cup plate method; details: MTCC 1782, 72 h, read-out: IZ
[16] = test system: Klebsiella pneumoniae; test: Antimicrobial activity against Klebsiella pneumoniae NCTC 13368 at 500 ug/ml after 24 hrs by cup plate method; details: NCTC 13368, 24 h, read-out: IZ
[17] = test system: Aspergillus oryzae; test: Antimicrobial activity against Aspergillus oryzae MTCC 3567 at 750 ug/ml after 72 hrs by cup plate method; details: MTCC 3567, 72 h, read-out: IZ
[18] = test system: Staphylococcus aureus; test: Antimicrobial activity against Staphylococcus aureus ATCC 29513 at 1000 ug/ml after 24 hrs by cup plate method; details: ATCC 29513, 24 h, read-out: IZ
[19] = test system: Aspergillus oryzae; test: Antimicrobial activity against Aspergillus oryzae MTCC 3567 at 500 ug/ml after 72 hrs by cup plate method; details: MTCC 3567, 72 h, read-out: IZ
[20] = test system: Aspergillus oryzae; test: Antimicrobial activity against Aspergillus oryzae MTCC 3567 at 1000 ug/ml after 72 hrs by cup plate method; details: MTCC 3567, 72 h, read-out: IZ
[21] = test system: Aspergillus niger; test: Antimicrobial activity against Aspergillus niger MTCC 281 at 500 ug/ml after 72 hrs by cup plate method; details: MTCC 281, 72 h, read-out: IZ
[22] = test system: Escherichia coli; test: Antimicrobial activity against Escherichia coli MTCC 723 at 500 ug/ml after 24 hrs by cup plate method; details: MTCC 723, 24 h, read-out: IZ
[23] = test system: Staphylococcus aureus; test: Antimicrobial activity against Staphylococcus aureus ATCC 29513 at 500 ug/ml after 24 hrs by cup plate method; details: ATCC 29513, 24 h, read-out: IZ
[24] = test system: Aspergillus flavus; test: Antimicrobial activity against Aspergillus flavus MTCC 1973 at 750 ug/ml after 72 hrs by cup plate method; details: MTCC 1973, 72 h, read-out: IZ
[25] = test system: Aspergillus terreus; test: Antimicrobial activity against Aspergillus terreus MTCC 1782 at 1000 ug/ml after 72 hrs by cup plate method; details: MTCC 1782, 72 h, read-out: IZ

SMILES	zone of inhibition at 500 µg/mL [1] [mm]	zone of inhibition at 1000 µg/mL [2] [mm]	zone of inhibition at 750 µg/mL [3] [mm]	zone of inhibition at 1000 µg/mL [4] [mm]	zone of inhibition at 1000 µg/mL [5] [mm]	zone of inhibition at 750 µg/mL [6] [mm]	zone of inhibition at 1000 µg/mL [7] [mm]	zone of inhibition at 1000 µg/mL [8] [mm]	zone of inhibition at 750 µg/mL [9] [mm]	zone of inhibition at 750 µg/mL [10] [mm]	Activity [11]	zone of inhibition at 500 µg/mL [12] [mm]	zone of inhibition at 750 µg/mL [13] [mm]	zone of inhibition at 750 µg/mL [14] [mm]	zone of inhibition at 500 µg/mL [15] [mm]	zone of inhibition at 500 µg/mL [16] [mm]	zone of inhibition at 750 µg/mL [17] [mm]	zone of inhibition at 1000 µg/mL [18] [mm]	zone of inhibition at 500 µg/mL [19] [mm]	zone of inhibition at 1000 µg/mL [20] [mm]	further results
Cc1ccc(C2=CC(c3c(-c4ccccc4)[nH]c4ccccc34)c3c(nc[nH]c3=O)O2)cc1 (stereo not given)	3	3	2	11	5	8	6	3	3	8	Active	4	6	3	8	6	3	2	3	3	zone of inhibition at 500 µg/mL [21]: 8 mm; zone of inhibition at 500 µg/mL [22]: 3 mm; zone of inhibition at 500 µg/mL [23]: 2 mm; zone of inhibition at 750 µg/mL [24]: 3 mm; zone of inhibition at 1000 µg/mL [25]: 8 mm
Cc1ccc2[nH]c(-c3ccccc3)c(C3C=C(c4ccccc4)Oc4[nH]c(=O)nc(N)c43)c2c1 (stereo not given)	8	8	11	10	7	9	5	10	8	8	Active	10	5	10	8	6	8	11	9	5	zone of inhibition at 500 µg/mL [21]: 10 mm; zone of inhibition at 500 µg/mL [22]: 8 mm; zone of inhibition at 500 µg/mL [23]: 11 mm; zone of inhibition at 750 µg/mL [24]: 8 mm; zone of inhibition at 1000 µg/mL [25]: 9 mm
Cc1ccc2[nH]c(-c3ccccc3)c(C3C=C(c4ccccc4)Oc4[nH]c(=S)nc(N)c43)c2c1 (stereo not given)	9	8	9	8	5	3	4	8	8	8	Active	9	4	8	9	5	3	9	3	3	zone of inhibition at 500 µg/mL [21]: 4 mm; zone of inhibition at 500 µg/mL [22]: 8 mm; zone of inhibition at 500 µg/mL [23]: 10 mm; zone of inhibition at 750 µg/mL [24]: 6 mm; zone of inhibition at 1000 µg/mL [25]: 8 mm
Nc1nc(=O)[nH]c2c1C(c1c(-c3ccccc3)[nH]c3ccccc13)C=C(c1ccccc1)O2 (stereo not given)	10	5	10	3	9	5	10	13	8	4	Active	12	10	12	6	10	10	5	10	10	zone of inhibition at 500 µg/mL [21]: 5 mm; zone of inhibition at 500 µg/mL [22]: 10 mm; zone of inhibition at 500 µg/mL [23]: 10 mm; zone of inhibition at 750 µg/mL [24]: 9 mm; zone of inhibition at 1000 µg/mL [25]: 3 mm
N#CC1=C(N)OC(c2ccccc2)=CC1c1c(-c2ccccc2)[nH]c2ccc(Cl)cc12 (stereo not given)	3	10	9	10	3	9	10	13	10	8	Active	12	10	12	9	10	3	9	8	3	zone of inhibition at 500 µg/mL [21]: 8 mm; zone of inhibition at 500 µg/mL [22]: 10 mm; zone of inhibition at 500 µg/mL [23]: 10 mm; zone of inhibition at 750 µg/mL [24]: 3 mm; zone of inhibition at 1000 µg/mL [25]: 8 mm
Nc1n[nH]c2c1C(c1c(-c3ccccc3)[nH]c3ccc(Cl)cc13)C=C(c1ccccc1)O2 (stereo not given)	12	9	8	5	9	5	5	13	7	3	Active	12	5	12	2	6	12	8	12	12	zone of inhibition at 500 µg/mL [21]: 6 mm; zone of inhibition at 500 µg/mL [22]: 7 mm; zone of inhibition at 500 µg/mL [23]: 10 mm; zone of inhibition at 750 µg/mL [24]: 12 mm; zone of inhibition at 1000 µg/mL [25]: 3 mm
